The values below come from patent US7750184B2, “Vitamin D receptor modulators” (Eli Lilly and Company, priority 2003, dated 2010).

The test system of one data set is rat osteocalcin promoter. The data set is described as follows: OCN (osteocalcin) promoter assay. In kind it is cell-based. The note with it: RG-15 (ROS 17/2.8) cells, 48 hr treatment, luciferase reporter. The method, then:
3. The OCN (osteocalcin) Promoter Assay
The OCN Promoter Assay is an indicator and marker for osteoporosis. […] Preferred assay results are less than 50 nM.
(3) Materials and Method for the OCN Promoter Assay:
The activation of osteocalcin by VDR ligands was evaluated in a rat osteoblast-like cell line RG-15 (ROS 17/2.8) stably expressing rat osteocalcin promoter fused with luciferase reporter gene. […] Confluent RG-15 cells maintained in DMEM/F-12 medium (3:1) containing 5% FBS, 300 μg/ml G418 and at 37° C. under 5% CO2/95% air atmosphere were trypsinized (0.25% trypsin) and plated into white opaque 96-well cell culture plates (25000 cells/well). After 24 hr, cells (in DMEM/F-12 medium+2% FBS) were treated with various concentrations of compounds, dissolved in DMSO. The final DMSO concentration remained at 0.01% (v/v). After 48 hr treatment, the medium was removed, cells were lysed with 50 μl of lysis buffer (From Luciferase reporter assay system, Roche Diagnostics, Indianapolis, Ind.) and assayed for luciferase activity using the Luciferase Reporter Gene Assay kit from Boehringer Mannheim as per manufacturer's specifications.
A general note: A reporter such as luciferase makes a cellular process visible.

A further data set deals with KERtr cells. The experiment in a line: Keratinocyte proliferation assay. Particulars: Homo sapiens, 72 hr, BrdU incorporation, read-out: Kera. Prolif. IC50. The class given is cell-based. The method, then:
5. The Keratinocte Proliferation Assay
This Assay is indicative for the treatment of psoriasis.
(5) The Keratinocyte Proliferation Assay:
KERtr cells (Human skin keratinocyte transformed with a retrovirus vector, obtained from ATCC) were plated in 96-well flat-bottomed plates (3000 cells/well) in 100 µl keratinocyte serum free medium supplemented with bovine pituitary extract in the absence of EGF (Life Technologies, Rockville, Md.) and incubated at 37° C. for two days. The cells were treated with various concentrations of VDR ligands (ten-fold serial dilution from 10,000 nM to 0.1 nM in triplicate), dissolved in 100 μl keratinocyte serum free medium supplemented with bovine pituitary extract in the absence of EGF and incubated at 37° C. for 72 hr. BrdU (5-bromo-2′-deoxyuridine) incorporation was analyzed as a measure of DNA replication (Cell proliferation ELISA kit, Roche Diagnostics, Indianapolis, Ind.) and absorbance was measured at 405 nm. Potency values (IC50) values were determined as the concentration (nM) of compound that elicited a half-maximal response.
On the technique in general: Incorporation of labelled thymidine or its analogues reports DNA synthesis.

In the next data set the target is T1, VDR (Homo sapiens, UniProt P11473).
T1 construct: the receptor expression vector pGal4-VDR-LBD (10 ng); expressed in transfected cells; host or cells: Caco-2 cells
T1 sequence (P11473 127-423 limits assumed): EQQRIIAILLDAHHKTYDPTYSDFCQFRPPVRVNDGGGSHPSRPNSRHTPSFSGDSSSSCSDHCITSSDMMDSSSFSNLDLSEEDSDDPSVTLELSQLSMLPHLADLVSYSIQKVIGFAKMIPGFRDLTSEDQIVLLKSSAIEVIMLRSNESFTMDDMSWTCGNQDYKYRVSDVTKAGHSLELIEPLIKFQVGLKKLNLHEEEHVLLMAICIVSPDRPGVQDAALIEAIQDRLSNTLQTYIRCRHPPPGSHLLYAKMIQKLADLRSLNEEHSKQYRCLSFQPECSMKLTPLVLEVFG
The data set is described as follows: Caco-2 cell co-transfection assay (VDR CTF). In kind it is cell-based. The note with it: Caco-2 cells, pGal4-VDR-LBD co-transfection, luciferase reporter. The protocol: 2. The Caco-2 Cell Co-Transfection Assay:
The Caco-2 cell assay is an indicator for the undesirable condition of hypercalcemia. This co-transfection assay is a surrogate assay for in vivo calcemic activity of VDR ligands. […] Preferred assay results are greater than 1000 nM.
(2) Materials and Method for The Caco-2 Cell Assay:
Caco-2 cells, grown in phenol red free, DMEM (Invitrogen, Carlsbad, Calif.) containing 10% charcoal-stripped FCS (Hyclone, Logan, Utah), were transfected with Fugene 6 reagent (Roche Diagnostics, Indianapolis, Ind.). Cells (5000/well) were plated 18 h before transfection in a 96 well plate. The Cells were transfected with Gal4-responsive reporter pFRLuc (150 ng, Stratagene, La Jolla Calif.) and the receptor expression vector pGal4-VDR-LBD (10 ng), along with Fugene 6 reagent (0.2 μl/well). The DNA-Fugene complex was formed by incubating the mixture for 30 min at room temperature. The cells were transfected in triplicate for 5 h, and treated with various concentrations of VDR ligands (form 0.01 nM to 10,000 nM concentration range) 18 h post-transfection. The luciferase activity was quantified using Steady-Glo reagent kit (Promega, Madison, Wis.) as per manufacturer's specifications.

A short description of data set [1]: Mouse hypercalcemia assay. The note with it: oral gavage for 6 days, serum ionized calcium 6 hours after last dosing.
Protocol: The Mouse Hypercalcemia Assay is a six day hypercalcemia test for toxicity and selectivity. Acceptable test results are levels greater than 300 μg/kg/day. Preferred assay results are levels greater than 1000 μg/day.
(4) Materials and Method for the Mouse Hypercalcemia Assay:
Weanling, virus—antibody-free, five to six weeks old female DBF mice (Harlan, Indianapolis, Ind.) are used for all the studies. Animals are allowed to acclimate to local vivarium conditions for 2 days. […] The animals then are divided into groups with 4-5 mice per group. Different doses of test compounds prepared in 10% Ethanol and 90% sesame oil are administered to mice orally via gavage for 6 days. 1α-25(OH)2D3 0.5 μg/kg/d was also given to one group of mice as the positive control. […] Raw data of group differences is assessed by analysis of variance (ANOVA) using Fisher's protected least significant difference (PLSD) where the significance level was P<0.05.
The target in another data set is T2, RXR-VDR heterodimer (Homo sapiens, UniProt P11473).
T2 construct: Add the Gal4-RXR-DEF and VP16-VDR-LBD; expressed in transfected cells; host or cells: SaOS-2 cells
T2 sequence (P11473 127-423 limits assumed): T1 sequence (P11473 127-423 limits assumed)
T2 sequence (P19793 201-462 partner limits assumed): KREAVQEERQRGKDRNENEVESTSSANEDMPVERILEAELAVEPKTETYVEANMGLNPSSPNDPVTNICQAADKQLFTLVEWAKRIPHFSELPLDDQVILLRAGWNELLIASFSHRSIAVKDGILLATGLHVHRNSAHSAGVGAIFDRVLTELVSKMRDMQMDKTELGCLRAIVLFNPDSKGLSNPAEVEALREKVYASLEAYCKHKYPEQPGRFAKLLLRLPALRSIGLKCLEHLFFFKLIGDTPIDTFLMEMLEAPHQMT
The data set is described as follows: RXR-VDR heterodimerization assay (SaOS-2 cells). The class given is cell-based. The note with it: Gal4-RXR-DEF / VP16-VDR-LBD, luciferase reporter. The source says:
1. The RXR-VDR heterodimer Assay:
This assay provides the VDR activity of a test compound.
(1) Materials and Method for RXR-VDR Heterodimerization Assay:
Luciferase Assay Reagent: • Use Steady-Glo Luciferase Reagent from Promega (Cat # E2550) Consists of:
Add plain DMEM media to tubes for mixing the DNA
Add the Reporter gene pFR-LUC
Add the Gal4-RXR-DEF and VP16-VDR-LBD
Make a stock solution of the compounds in DMSO
Further dilute in D-MEM (Low Glucose—With out Phenol Red)
Read the plates after drug treatment
Add Steady-Glo Luciferase Reagent mixture/wells
Count each well using a Luminescence counter, Top Count NXT by Packard

A word on the EC50: it is the concentration needed to bring the measured effect to its halfway point. Broadly, the IC50 is the point on the concentration scale where inhibition reaches its midpoint. On to `CCC(CC)(c1ccc(OS(C)(=O)=O)cc1)c1ccc(OCC(O)C(C)(C)C)c(Cl)c1` (racemic) [Ex. 43, 51, 3′-[3-chloro-4-(2-hydroxy-3,3-dimethylbutoxy)phenyl]-3′-(4-methylsulfonyloxyphenyl)pentane], for which the EC50 in the data set on rat osteocalcin promoter (Rattus norvegicus, 48 h) is 7.53 nM. The IC50 in the data set with KERtr cells was 4 nM.

Take `CCC(CC)(c1ccc(OC[C@H](O)C(C)(C)C)c(C)c1)c1ccc(OS(C)(=O)=O)c(C)c1` (single isomer, unassigned) [Ex. 2, 3′-[4-(2-hydroxy-3,3-dimethylbutoxy)-3-methylphenyl]-3′-[4-(methanesulfonyloxy)-3-methylphenyl]pentane]: the EC50 was found to be 5.1 nM in the data set on rat osteocalcin promoter and 46.5 nM on VDR. The “Mouse Hypercal” value in data set [1] was 50 µg/kg/day.

Regarding `CCC(CC)(c1ccc(OC[C@H](O)C(C)(C)C)c(C)c1)c1ccc(OS(C)(=O)=O)c(C)c1` (single isomer, unassigned) [Ex. 3, 3′-[4-(2-hydroxy-3,3-dimethylbutoxy)-3-methylphenyl]-3′-[4-(methanesulfonyloxy)-3-methylphenyl]pentane], the 50% effective concentration (EC50) in the data set with rat osteocalcin promoter was found to be 16.3 nM; at VDR, 133 nM. Also, the “Mouse Hypercal” value in data set [1] was 50 µg/kg/day.

Regarding `CCC(CC)(c1ccc(NS(C)(=O)=O)c(C)c1)c1ccc(OCC(O)C(C)(C)C)c(C)c1` (single isomer, unassigned) [Ex. 14, 3′-[4-(2-Hydroxy-3,3-dimethylbutoxy)-3-methylphenyl]-3′-[4-(methanesulfonylamino)-3-methylphenyl]pentane], the EC50 was found to be 9.77 nM in the data set with rat osteocalcin promoter (Rattus norvegicus, 48 h) and 89 nM at VDR. Moreover, the IC50 with KERtr cells was 2 nM. For the same compound, in data set [1], the “Mouse Hypercal” value is below 300 µg/kg/day.

Regarding `CCC(CC)(c1ccc(OCC(O)C(C)(C)C)c(C)c1)c1ccc(N(C)S(C)(=O)=O)c(C)c1` (single isomer, unassigned) [Ex. 21, N-(4-{1-ethyl-1-[4-(2-hydroxy-3,3-dimethyl-butoxy)-3-methyl-phenyl]-propyl}-2-methyl-phenyl)-N-methyl-methanesulfonamide], the EC50 in the data set with rat osteocalcin promoter is 124 nM. The IC50 in the data set on KERtr cells is 67 nM.

Turning to `CCC(CC)(c1ccc(OS(C)(=O)=O)cc1)c1ccc(OCC(O)C(C)(C)C)c(Cl)c1` (single isomer, unassigned) [Ex. 44, 3′-[3-chloro-4-(2-hydroxy-3,3-dimethylbutoxy)phenyl]-3′-(4-methylsulfonyloxyphenyl)pentane], the results for the concentration giving a half-maximal response (EC50) in the data set with rat osteocalcin promoter, on VDR and on RXR-VDR heterodimer were 2.4 nM, 86.6 nM and 2.21 nM, respectively.

Take `Cc1cc(C2(c3ccc(OCC(=O)C(C)(C)C)c(C)c3)CCCCC2)ccc1OCC(=O)C(C)(C)C` [CC, 1-(4-{1-[4-(3,3-Dimethyl-2-oxo-butoxy)-3-methyl-phenyl]-cyclohexyl}-2-methyl-phenoxy)-3,3-dimethyl-butan-2-one, reference compound]: the EC50 is 10000 nM in the data set on rat osteocalcin promoter (Rattus norvegicus, 48 h) and 710000 nM at VDR. The “Mouse Hypercal” value in data set [1] is above 30000 µg/kg/day.

With `CCC(CC)(c1ccc(OS(=O)(=O)C(F)(F)F)cc1)c1ccc(OCC(=O)C(C)(C)C)c(Cl)c1` [Ex 46, 52, 3′-[3-chloro-4-(2-Oxo-3.3-dimethylbutoxy)]-3′-(4-trifluoromethylsulfonyloxyphenyl)pentane], the EC50 in the data set on rat osteocalcin promoter (Rattus norvegicus, 48 h) amounted to 217 nM. The IC50 with KERtr cells worked out at 90 nM.

In the case of `CCC(CC)(c1ccc(OCC(=O)C(C)(C)C)c(C)c1)c1ccc(OS(=O)(=O)C(F)(F)F)c(C)c1` [Ex. 5, 3′-[4-(2-oxo-3,3-dimethylbutoxy)-3-methylphenyl]-3′-[4-(trifluoromethanesulfonyloxy)-3-methylphenyl]pentane], the EC50 in the data set with rat osteocalcin promoter (Rattus norvegicus, 48 h) amounted to 20.8 nM; at VDR, 1590 nM. For the same compound, the “Mouse Hypercal” value in data set [1] was above 500 µg/kg/day.

On to `CCC(CC)(c1ccc(OCC(O)C(C)(C)C)c(C)c1)c1ccc(OS(=O)(=O)C(F)(F)F)c(C)c1` (stereo not drawn) [Ex. 6, 3′-[4-(2-hydroxy-3,3-dimethylbutoxy)-3-methylphenyl]-3′-[4-(trifluoromethanesulfonyloxy)-3-methylphenyl]pentane], for which the EC50 was 11.3 nM in the data set with rat osteocalcin promoter (Rattus norvegicus, 48 h) and 1140 nM at VDR. For the same compound, the “Mouse Hypercal” value in data set [1] was 300 µg/kg/day.

In the case of `CCC(CC)(c1ccc(OCC(=O)C(C)(C)C)c(C)c1)c1ccc(OS(=O)(=O)CC(F)(F)F)c(C)c1` [Ex. 7], the half-maximal effective concentration (EC50) in the data set on rat osteocalcin promoter (Rattus norvegicus, 48 h) stood at 84 nM; on VDR, 331 nM. The “Mouse Hypercal” value in data set [1] is 100 µg/kg/day.

Take `CCC(CC)(c1ccc(NS(C)(=O)=O)c(C)c1)c1ccc(OCC(=O)C(C)(C)C)c(C)c1` [Ex. 17, N-(4-{1-[4-(3,3-Dimethyl-2-oxo-butoxy)-3-methyl-phenyl]-1-ethyl-propyl}-2-methyl-phenyl)-methanesulfonamide]: in the data set on rat osteocalcin promoter (Rattus norvegicus, 48 h), the EC50 amounted to 3.75 nM. Moreover, the 50% inhibitory concentration (IC50) in the data set on KERtr cells came out at 2 nM.

Turning to `CCc1cc(C(CC)(CC)c2ccc(OS(C)(=O)=O)cc2)ccc1OCC(=O)C(C)(C)C` [Ex. 39, 3′-[4-(2-oxo-3,3-dimethylbutoxy)-3-ethylphenyl]-3′-[4-methylsulfonyloxy-phenyl]pentane], the 50% effective concentration (EC50) in the data set with rat osteocalcin promoter (Rattus norvegicus, 48 h) stood at 1.79 nM; at VDR it was 18 nM. In addition, in data set [1], the “Mouse Hypercal” value is below 100 µg/kg/day.

As for `CCC(CC)(c1ccc(OCC(=O)C(C)(C)C)c(C)c1)c1cc(C)c(OS(C)(=O)=O)c(C)c1` [Ex. 40, 3′-[4-(2-oxo-3,3-dimethylbutoxy)-3-methylphenyl]-3′-[3,5-dimethyl-4-methylsulfonyloxy-phenyl]pentane], the EC50 with rat osteocalcin promoter (Rattus norvegicus, 48 h) came to 1.91 nM; on VDR it was 375 nM. Also, the “Mouse Hypercal” value in data set [1] was 300 µg/kg/day.

As to `CCC(CC)(c1ccc(OS(=O)(=O)C(F)(F)F)c(C)c1)c1ccc(OCC(=O)C(C)(C)C)c(Cl)c1` [Ex. 48, 3′-[3-chloro-4-(2-oxo-3.3-dimethylbutoxy)phenyl]-3′-[3-methyl-4-(trifluoromethylsulfonyloxy)phenyl]pentane], the 50% effective concentration (EC50) with rat osteocalcin promoter (Rattus norvegicus, 48 h) is 54.1 nM. In addition, the IC50 in the data set on KERtr cells came out at 13 nM. Also, the “Mouse Hypercal” value in data set [1] was below 1000 µg/kg/day.
